Key:
L929 cells = experiment: Cell viability assay (MTT, ISO 10993-5) on L929 mouse fibroblasts; format: cell-based; conditions: 24 h, concentration for 30% inhibition of cell proliferation
Text: First, we evaluated the cytotoxic effects of 1b–9b, which is necessary prior to measuring anti-Toxoplasma and Tyr inhibition in order to exclude cytotoxic compounds. […] Cytotoxicity was estimated using mouse fibroblast (L929) cells line via MTT assay, according to the international standards ISO 10993–5:2009(E). […] Therefore, the obtained results were expressed as CC30, which was defined as the highest concentration of the compound that causes 30% damage of cells and was considered according to ISO as non-toxic.
The L929 mouse fibroblast (ATTC® CCL-1™, Manassas, VA) was routinely maintained in RPMI 1640 media (R8758, Sigma-Aldrich, Suffolk, UK), supplemented with 10% foetal bovine serum (Foetal Bovine Serum, ATCC® 30–2020™), 100 I.U./mL penicillin and 100 µg/mL streptomycin (Penicillin-Streptomycin Solution ATCC® 30–2300™). Cells were trypsinised (Trypsin-EDTA Solution, 1X ATCC® 30–2101™) twice a week and seeded at a density of 1 × 10^6 per T25 cell culture flask and incubated at 37 °C and 10% CO2 to achieve a confluent monolayer.
Cell viability assay was performed according to international standards (ISO 10993–5:2009(E)), using tetrazolium salt (MTT, Sigma-Aldrich) and mouse fibroblasts L929 cells. Culture medium RPMI 1640, without phenol red (Biowest, Nuaille, France) supplemented with 10% FBS, 2 mM L-glutamine (Sigma-Aldrich), 100 I.U./mL penicillin, 100 µg/mL streptomycin were used. Briefly, 1 × 10^4/well of L929 cells were placed in 96-well plates and incubated for 24 h at 37 °C and 10% CO2. Afterwards, the old culture medium was replaced with 100 µL of the compound, drug or inhibitor, diluted in culture medium, and the cells treated for 24 h. Additionally, cells were treated with 0.03–4.0% concentration of DMSO as the solvent (data not shown). Then, 50 µL of 1 mg/mL of MTT solution in RPMI 1640 without phenol red was added to each well and incubated for 2 h at 37 °C and 10% CO2. Next, cell culture medium was aspirated carefully and 150 µL of DMSO was added to each well, and the plates were gently mixed. Then, 25 µL 0.1 M glycine buffer (pH 10.5) (Sigma-Aldrich) was added. The optical density at 570 nm using a multi-mode microplate reader SpectraMax® i3 (Syngen, Taipei City, Taiwan) was recorded. The results were expressed as a percentage of viability compared to untreated cells. All experiments were performed in triplicate. Cytotoxicity assay using human fibroblast Hs27 cells was also performed as described above (included in Supplementary Material).

Toxoplasma gondii = Toxoplasma gondii proliferation; cited from earlier work
T. gondii RH strain = experiment: Antiparasitic assay: T. gondii RH proliferation in Hs27 cells, [3H]uracil incorporation; format: cell-based, Toxoplasma gondii

COc1cc(Cc2cnc(N)nc2N)cc(OC)c1OC [Trimethoprim (TRI), Trimethoprim, reference compound]
CC30 (L929 cells): 61.25 µM | IC50 (Toxoplasma gondii): 50.9 µM | IC50 (T. gondii RH strain; Toxoplasma gondii, HS27): 50.9 µM | SR (selectivity ratio) (T. gondii RH strain; ratio of CC30 (L929) to IC50Tg): 1.20

Reference: paper PMC8174488, “4-Arylthiosemicarbazide derivatives as a new class of tyrosinase inhibitors and anti-Toxoplasma gondii agents” (Journal of Enzyme Inhibition and Medicinal Chemistry, 2021)
